US4180582A, “6-n-Propyl-8-methoxy-methyl or methylmercaptomethylergolines and related compounds as prolactin inhibitors and to treat Parkinson's syndrome” (priority 1979, dated 1979)
Structures can show the parent of a compound that is named as a salt.

Tests used:
[1] = test system: 6-hydroxydopamine-lesioned rats; assay: turning behavior test in 6-hydroxydopamine-lesioned rats; assay type: in vivo, rat; conditions: for Average Number of Turns/rat: first 15 minutes after end of latency period
Procedure: In this test, nigro-neostriatal-lesioned rats are employed, which are prepared by the procedure of Ungerstedt and Arbuthnott, Brain Res, 24, 485 (1970). A compound having dopamine agonist activity causes the rats to turn in circles contralateral to the side of the lesion. After a latency period, which varies from compound to compound, the number of turns is counted over a 15-minute period.
The compounds were dissolved in water and the aqueous solution injected into the rat by the intraperitoneal route.

[2] = test system: prolactin; assay: inhibition of prolactin secretion in reserpine-treated male rats; assay type: in vivo, rat (Sprague-Dawley); parameters: Serum Prolactin Level: unit not given here; conditions: for Percent Inhibition of Serum Prolactin: vs. control of same experiment
Procedure: Adult male rates of the Sprague-Dawley strain weighing about 200 g. were housed in an air-conditioned room with controlled lighting (lights on 6 a.m.-8 p.m.) and fed lab chow and water ad libitum. Each rat received an intraperitoneal injection of 2.0 mg. of reserpine in aqueous suspension 18 hours before administration of the ergoline derivative. The purpose of the reserpine was to keep prolactin levels uniformly elevated. The compounds under test were dissolved in 10 percent ethanol at a concentration of 10 mcg.ml. and were injected intraperitoneally at a standard dose of 50 mcg/kg. Each compound was administered to a group of 10 rats, and a control group of 10 intact males received an equivalent amount of 10 percent ethanol. One hour after treatment all rats were killed by decapitation, and 150 μl aliquots of serum were assayed for prolactin. The results were evaluated statistically using Student's "t" test to calculate the level of significance, "p", of the changes in prolactin level.
The difference between the prolactin level of the treated rats and prolactin level of the control rats, divided by the prolactin level of the control rats gives the percent inhibition of prolactin secretion attributable to the compounds of this invention. In the table, column 1 gives the name of the compound; column 2, the prolactin level for each group of rats; column 3, the percent prolactin inhibition; and column 4, the level of significance. The data were collected from three separate experiments, each with its own control, and Table 2 sets forth the results obtained by experiment.

[3] = test system: dopamine receptors; conditions: in words; cited from earlier work
[4] = test system: prolactin; conditions: in words; cited from earlier work
[5] = test system: Parkinsonism; conditions: in words; cited from earlier work
[6] = in words; cited from earlier work
[7] = test system: serotonin; assay: serotonin agonism; conditions: in words
[8] = test system: dopamine receptors; assay: inhibition of high affinity binding of tritiated dopamine to dopamine receptors in membranes from striatal synaptosomes; parameters: species or system bovine; conditions: in words
[9] = 50 mcg/kg i.p., one hour after treatment

SMILES	% of Rats Exhibiting Turning Behavior ([1]; IP dose 1 mg/kg)	Duration of Effect ([1]; IP dose 1 mg/kg)	Latency of Effect ([1]; IP dose 1 mg/kg)	Percent Inhibition of Serum Prolactin [2, 9]	further results
CCCN1C[C@H](COC)C[C@@H]2c3cccc4[nH]cc(c34)C[C@H]21 [D-6-n-propyl-8β-methoxymethylergoline methanesulfonate]	100%	≥ 2 h	6 min	96%	
CCCN1C[C@H](C[S+](C)[O-])C[C@@H]2c3cccc4[nH]cc(c34)C[C@H]21 (stereo partly drawn) [D-6-n-propyl-8β-methylsulfinylmethylergoline mesylate]	100%	1 h	7 min	92%	Average Number of Turns/rat ([1]; IP dose 1 mg/kg): 65 Turns/rat; Serum Prolactin Level ([2]; 50 mcg/kg i.p., one hour after treatment, reserpine-treated male rats): 3.3
CC(C)C[C@H]1C(=O)N2CCC[C@H]2[C@]2(O)O[C@](NC(=O)[C@@H]3C=C4c5cccc6[nH]c(Br)c(c56)C[C@H]4N(C)C3)(C(C)C)C(=O)N12 (stereo in doubt) [2-bromo-α-ergokryptine]					dopamine receptor stimulation [3]: stimulate dopamine receptors; activity as prolactin inhibitors [4]: activity as prolactin inhibitors; usefulness in the treatment of Parkinsonism [5]: useful in the treatment of Parkinsonism
N[C@@H](Cc1ccc(O)c(O)c1)C(=O)O [Example 1-dopa, 1-dihydroxyphenylalanine]					metabolism [6]: rapidly metabolized
CCCN1CC(CSC)=C[C@@H]2c3cccc4[nH]cc(c34)C[C@H]21 [D-6-n-propyl-8-methylmercaptomethyl-8-ergolene maleate]	100%	1 h	4 min	91%	
CC(C)[C@H]1C(=O)N2CCC[C@H]2[C@]2(O)O[C@](NC(=O)[C@@H]3C=C4c5cccc6[nH]cc(c56)C[C@H]4N(C)C3)(C(C)C)C(=O)N12 [ergocornine]					dopamine receptor stimulation [3]: stimulate dopamine receptors; activity as prolactin inhibitors [4]: activity as prolactin inhibitors
CCN1C[C@H](CSC)C[C@@H]2c3cccc4[nH]cc(c34)C[C@H]21 [D-6-ethyl-8β-methylmercaptomethylergoline mesylate]	100%	≥ 2 h	9 min	91%	
CCCN1C[C@H](CSC)C[C@@H]2c3cccc4[nH]c(Br)c(c34)C[C@H]21 [D-2-bromo-6-n-propyl-8β-methylmercaptomethylergoline mesylate]	100%	1 h	5 min	89%	Average Number of Turns/rat ([1]; IP dose 1 mg/kg): 71 Turns/rat
CCCN1C[C@H](CSC)C=C2c3cccc4[nH]cc(c34)C[C@H]21 [D-6-n-propyl-8β-methylmercaptomethyl-9-ergolene]	100%	≥ 2 h	4 min	81%	Average Number of Turns/rat ([1]; IP dose 1 mg/kg): 200 Turns/rat
CN1CC(CC#N)C[C@@H]2c3cccc4[nH]cc(c34)C[C@H]21 (stereo partly drawn) [D-6-methyl-8-cyanomethylergoline]					activity as prolactin inhibitors [4]: activity as prolactin inhibitors
CC(C)C1C(=O)N2CCCC2C2(O)OC(NC(=O)C3CC4c5cccc6[nH]cc(c56)CC4N(C)C3)(C(C)C)C(=O)N12 (stereo not shown) [dihydroergocornine]					activity as prolactin inhibitors [4]: activity as prolactin inhibitors
CCCN1C[C@H](CSC)C[C@@H]2c3cccc4[nH]cc(c34)C[C@H]21 [D-6-n-Propyl-8β-methylmercaptomethylergoline]					serotonin agonist / antagonist activity [7]: serotonin agonists rather than serotonin antagonists; inhibition of high affinity binding of tritiated dopamine [8]: extremely potent inhibitors
CCCN1C[C@H](CSC)C[C@@H]2c3cccc4[nH]cc(c34)C[C@H]21 [D-6-n-propyl-8β-methylmercaptomethylergoline methanesulfonate]		≥ 24 h			relative potency in the turning behavior test ([1]; vs. corresponding D-6-methyl derivative, dose response curves): about 30 times; relative potency as a prolactin inhibitor ([2]; vs. corresponding D-6-methyl compound, dose response curves): about 100 times
CN1C[C@H](CC#N)C[C@@H]2c3cccc4[nH]c(Cl)c(c34)C[C@H]21 [legotrile]					usefulness in the treatment of Parkinsonism [5]: useful in the treatment of Parkinsonism
CSC[C@@H]1C[C@@H]2c3cccc4[nH]cc(c34)C[C@H]2N(C)C1 [D-6-methyl-8β-methylmercaptomethylergoline mesylate, reference compound]	50%			58%	Duration of Effect in Hours ([1]; IP dose 1 mg/kg): ~ 2 Hours; Average Number of Turns/rat ([1]; IP dose 1 mg/kg): 51 Turns/rat
